Measurements: ChEMBL document CHEMBL1201862, “PubChem BioAssay data set” (2004)
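Tested at 5 concentrations; 48 h exposure; 96-well plates; endpoints linearly interpolated, else capped at highest concentration. GI50 marks 50% less growth.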 Active and inactive are the calls of the source. Cut-off read from the data, not from the text of the source: active = GI50 up to about 1.1 µM and inactive = higher.

How the values were obtained:
Assay in all cases: DTP human tumour cell line panel, 48 h
M19-MEL = system: M19-MEL
KM-20L2 = system: KM-20L2
HOP-18 = system: HOP-18
LXFL 529 = system: LXFL 529
XF498 = system: XF498
DMS-114 = system: DMS-114
DMS-273 = system: DMS-273
DLD-1 = system: DLD-1
RXF 631 = system: RXF 631

Row | Structure (SMILES) | GI50 (M19-MEL) | GI50 (KM-20L2) | GI50 (HOP-18) | GI50 (LXFL 529) | GI50 (XF498) | GI50 (DMS-114) | GI50 (DMS-273) | GI50 (DLD-1) | GI50 (RXF 631)
1 | Cc1ccc(NC(=O)CSc2nnc(Cc3ccccc3)o2)c(C)c1 | > 100 µM (inactive) | > 100 µM (inactive) | > 100 µM (inactive) | > 100 µM (inactive) | > 100 µM (inactive) | > 100 µM (inactive) | > 100 µM (inactive) |  | 
2 | CCc1cccc(C(C)C)c1N1C(=O)C(=O)C(c2nc3ccccc3s2)C(=O)C1=O | 39.1 µM (inactive) | 48.4 µM (inactive) | > 50 µM (inactive) | 28.9 µM (inactive) | > 50 µM (inactive) | 29.6 µM (inactive) | > 45.3 µM (inactive) | 20.5 µM (inactive) | 
3 | O=C(Nc1ccc(Sc2ccc(/N=N/c3c(O)c(S(=O)(=O)O)cc4cc(S(=O)(=O)O)ccc34)cc2)cc1)c1ccc(/N=N/c2c(O)c(S(=O)(=O)O)cc3cc(S(=O)(=O)O)ccc23)cc1 | 19.5 µM (inactive) | 63.5 µM (inactive) | 23 µM (inactive) | 18.1 µM (inactive) | 36.4 µM (inactive) | 5.42 µM (inactive) | 15.1 µM (inactive) | 51.1 µM (inactive) | 
4 | Cc1cn2cc(-c3ccncc3)nc2s1 | > 86.7 µM (inactive) | > 100 µM (inactive) | > 100 µM (inactive) | > 100 µM (inactive) | > 100 µM (inactive) | > 91.4 µM (inactive) | > 100 µM (inactive) | > 100 µM (inactive) | > 100 µM (inactive)
5 | c1ccc(P(=Nc2ccccc2N=P(c2ccccc2)(c2ccccc2)c2ccccc2)(c2ccccc2)c2ccccc2)cc1 | 0.818 µM (active) | 1.38 µM (inactive) | 0.172 µM (active) | 0.337 µM (active) | 0.208 µM (active) | 0.405 µM (active) | 0.309 µM (active) | 1.47 µM (inactive) | 1.34 µM (inactive)
6 | O=C(/C=C/c1ccc(O)cc1)c1cc(Cl)ccc1O | 72.1 µM (inactive) | > 100 µM (inactive) | > 100 µM (inactive) | 42.5 µM (inactive) | 23.7 µM (inactive) | 23.3 µM (inactive) |  | 43.6 µM (inactive) | 
7 | O=C1CSC(/C(=C\c2ccc(Cl)cc2)c2nc3ccccc3[nH]2)=N1 | 15.2 µM (inactive) | 31 µM (inactive) |  | 20.8 µM (inactive) | 1.36 µM (inactive) |  | 21 µM (inactive) | 16.3 µM (inactive) | 
8 | O=C(N/C(=C\c1ccc(/C=C(\NC(=O)c2ccccc2)c2nc3cc([N+](=O)[O-])ccc3[nH]2)cc1)c1nc2cc([N+](=O)[O-])ccc2[nH]1)c1ccccc1 | 52.4 µM (inactive) | 37.8 µM (inactive) | > 100 µM (inactive) | 28.4 µM (inactive) |  | 18.8 µM (inactive) | 51.6 µM (inactive) | 43.8 µM (inactive) | 34.5 µM (inactive)
9 | CSc1nsc(-c2ccccc2)[s+]1.[O-][Cl+3]([O-])([O-])[O-] | > 100 µM (inactive) | > 100 µM (inactive) | > 100 µM (inactive) |  |  |  | > 100 µM (inactive) | > 100 µM (inactive) | > 100 µM (inactive)
10 | COc1ccc(/C(C#N)=C2/O/C(=N/N)C(c3ccc(OC)c(OC)c3)C2=O)cc1OC (centres undefined) | > 100 µM (inactive) | > 100 µM (inactive) |  | > 100 µM (inactive) | > 100 µM (inactive) |  | > 100 µM (inactive) | > 100 µM (inactive) | 
11 | Cc1ccc(NCCO)cc1 |  | > 100 µM (inactive) |  | > 100 µM (inactive) | > 100 µM (inactive) | 61.7 µM (inactive) |  | > 100 µM (inactive) | 
12 | Cc1cc(Cl)ccc1NC(=O)CC1SC(NC(=O)c2ccccc2Cl)=NC1=O (centres undefined) | 19.2 µM (inactive) | 28.6 µM (inactive) |  | 18 µM (inactive) | 14.8 µM (inactive) | 20.4 µM (inactive) | 18.9 µM (inactive) | 19.1 µM (inactive) | 
13 | c1ccc2c(c1)nnn1c3cnccc3nc21 | 65.9 µM (inactive) | 53.1 µM (inactive) | 53.5 µM (inactive) | 31.8 µM (inactive) |  | 20.2 µM (inactive) | 15.9 µM (inactive) | 27.5 µM (inactive) | 
14 | COc1cccc(NC(=O)/C(CC(=O)CC(c2ccccc2)c2c(O)c3ccccc3oc2=O)=N\NC(C)(C)C)c1OC (centres undefined) | > 100 µM (inactive) | 51.4 µM (inactive) |  | 41.3 µM (inactive) |  | 22.8 µM (inactive) |  | 40.6 µM (inactive) | 
15 | COC(=O)CC1(O)C(=O)OCc2c1cc1n(c2=O)Cc2c-1nc1ccccc1c2OC (centres undefined) | 1.19 µM (inactive) | 1.95 µM (inactive) | 0.522 µM (active) | 23.2 µM (inactive) | 13.3 µM (inactive) | 0.164 µM (active) | 0.042 µM (active) | 27.4 µM (inactive) | 1.63 µM (inactive)
16 | Cc1cc(N(CCC#N)CCC#N)ccc1/C=C1N=C(/C=C\c2ccccc2)OC\1=O | > 100 µM (inactive) | > 100 µM (inactive) | > 100 µM (inactive) | > 100 µM (inactive) | > 100 µM (inactive) | > 100 µM (inactive) | > 100 µM (inactive) | > 100 µM (inactive) | 
17 | Cc1c(C(=O)/C=C/c2ccccc2[N+](=O)[O-])[n+]([O-])c2ccccc2[n+]1[O-] | 5.97 µM (inactive) | 5.61 µM (inactive) | 15.4 µM (inactive) | 4.89 µM (inactive) |  | 5.55 µM (inactive) | 3.61 µM (inactive) | 3.53 µM (inactive) | 4.34 µM (inactive)
18 | O=C(Cc1nc2ccc([N+](=O)[O-])cc2nc1O)C(=O)Nc1ccccc1[N+](=O)[O-] | > 100 µM (inactive) | 87.3 µM (inactive) |  | > 100 µM (inactive) |  | 39.5 µM (inactive) | > 100 µM (inactive) | > 100 µM (inactive) | 
19 | O=C(N/C(=C\c1cc(Cl)ccc1Cl)c1nc2c(O)nc(S)nc2[nH]1)c1ccccc1 | 27 µM (inactive) | 41.4 µM (inactive) |  | 15.6 µM (inactive) | > 48.6 µM (inactive) | 25.2 µM (inactive) |  | 15.2 µM (inactive) | 20.4 µM (inactive)
20 | COC(=O)c1cc(Cl)ccc1NC(=O)c1ccc([N+](=O)[O-])cc1 | 40.7 µM (inactive) | 21.3 µM (inactive) |  | 25.8 µM (inactive) | 14.4 µM (inactive) | 33.5 µM (inactive) | 21.6 µM (inactive) | 38.8 µM (inactive) | 17.6 µM (inactive)
21 | CC1c2ccccc2Cn2cc3c(c21)C(=O)c1cccc(OP(=O)(O)OCc2ccccc2)c1C3=O (centres undefined) |  | > 100 µM (inactive) |  | > 100 µM (inactive) | 34.3 µM (inactive) | > 100 µM (inactive) |  | > 100 µM (inactive) | > 100 µM (inactive)
22 | Clc1ccc(C(c2ccccc2Cl)C(Cl)Cl)cc1 (centres undefined) [MITOTANE] | 19.7 µM (inactive) | 16.9 µM (inactive) | 12.5 µM (inactive) | 20.9 µM (inactive) | 15.7 µM (inactive) | 18.5 µM (inactive) | 18.5 µM (inactive) | 19.5 µM (inactive) | 17.9 µM (inactive)
